Entries after “also recorded” stand apart in the source; their conditions may differ.
Legend:
[1] = biological target: STING (Homo sapiens, UniProt Q86WV6, G230A/H232R/R293Q/R71H); test: ISG54 (IRF pathway) reporter assay in THP1-Dual cells; conditions: for EC50 rank order (lipid chain length): FIG. 6, human or murine reporter cell
[2] = system: Type I IFNs; test: Whole-blood assay, type I IFN induction (HEK-Blue IFN-α/β-KO-STING readout); assay type: cell-based, human; conditions: for EC50: whole blood assay, type I IFN, read-out: EC50 (μM) IFN in WBA; for induction of type I IFNs in whole-blood assay (comparison in words): healthy human donors, dose-response
Description: Type I IFNs: HEK-Blue™ IFN-α/β-KO-STING: These cells, in which the STING gene has been inactivated, are derived from HEK293 cell line known as HEK-Blue™ IFN-α/β (InvivoGen catalog code: hkb-ifnab). HEK-Blue™ IFN-α/β cells enable detection of bioactive human type I IFNs through monitoring of activation of the […]. These cells were generated by stable transfection of HEK293 cells with the human STAT2 and IRF9 genes to obtain a fully active Type-I IFN signaling pathway. The other genes of the pathway (IFNAR1, IFNAR2, JAK1, TyK2 and STAT1) are naturally expressed in sufficient amounts. The cells were further transfected with a SEAP reporter gene under control of an IFNα/β-inducible ISG54 promoter. This promoter comprises five IFN-stimulated response elements (ISREs) fused to a minimal promoter of the human ISG54 gene, which is unresponsive to activators of the NF-κB or AP-1 pathways. Stimulation of HEK-Blue™ IFN-α/β cells with human IFN-α or IFN-β activates the JAK/STAT/ISGF3 pathway and subsequently induces production of SEAP. Production of type I IFNs in these cells is measured using QUANTI-Blue™.
Briefly, the samples were collected by venipuncture into sodium heparin tubes at the time of donation. The samples were analyzed for rhesus (Rh), blood group, hematocrit and serological status (AgHBS, HIV, HCV, HTLV, HBC, CMV, Syph). The tubes were picked up on the day of collection and subsequently tested (blood analysis, and treatment with test items) on the same day.
Each blood sample was diluted (1:2 [v/v]) in RPMI medium and aliquoted into 96-well plates (180-μL wells) containing either CDN (√10-fold serial dilution starting from 50 μM). The plates were incubated at 37° C. in a 5% CO2 incubator for 18 hours. Then, the supernatants were collected, transferred into the corresponding wells of round-bottom 96-well plates, and either stored at −80° C., or immediately tested in the appropriate reporter cell line.
A new 96-wells plate was prepared for each reporter cell lines tested, as follows: 10 μL of supernatant from the previous plate were added to the corresponding well in the new reporter cell plate. Then, a 190-μL aliquot of cells of the desired reporter cell line, previously harvested in medium containing heat-inactivated serum and counted, was added to each well (approximately 50,000 cells/well), and the plate was incubated for approximately 20 hours. The desired cytokine induction activity was determined using the QUANTI-Blue™ assay, as previously described. Briefly, 20 μL of supernatant from the previously incubated plate was transferred to the corresponding well of a new 96-well plate in which 180 μL of QUANTI-Blue™ reagent had previously been added.

[3] = Lipid-based nanoparticle formation (PdI, Z Ave); assay type: physicochemical; conditions: for Z Ave (nm): lipid BAM-CDN particles; for PdI: polydispersity index of lipid BAM-CDN

Chain of STING (Q86WV6 whole entry R71H/G230A/H232R/R293Q): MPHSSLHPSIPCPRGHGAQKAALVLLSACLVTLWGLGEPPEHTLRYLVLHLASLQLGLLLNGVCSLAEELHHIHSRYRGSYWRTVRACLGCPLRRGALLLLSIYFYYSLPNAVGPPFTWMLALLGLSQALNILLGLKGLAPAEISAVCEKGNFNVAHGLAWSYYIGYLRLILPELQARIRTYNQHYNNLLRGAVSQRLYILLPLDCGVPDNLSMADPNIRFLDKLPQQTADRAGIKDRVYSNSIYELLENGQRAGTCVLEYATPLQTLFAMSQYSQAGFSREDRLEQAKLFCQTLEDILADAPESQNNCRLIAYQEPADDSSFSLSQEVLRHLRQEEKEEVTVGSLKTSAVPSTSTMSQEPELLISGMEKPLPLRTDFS

Row | Compound | Fold ISG induction vs unstimulated @10 μM ([1]; THP1-Dual cells) [fold] | EC50 [2] [µM] | Z Ave (nm) [3] [nm] | PdI [3] | further results
1 | CCCC(=O)N[C@H](C(=O)N[C@@H](C)C(=O)Nc1ccc(CSP2(=O)OC[C@H]3O[C@@H](n4cnc5c(N)ncnc54)[C@H](F)[C@@H]3OP(=O)(O)OC[C@H]3O[C@@H](n4cnc5c(O)ncnc54)C[C@@H]3O2)cc1)C(C)C (some centres unmarked) [CL820] |  |  |  |  | EC50 rank order (lipid chain length) [1]: EC50 (CL820=C4-CL797)=EC50 (CL819=C2-CL797)=EC50 (CL797)
2 | CC(C)[C@H](NC(=O)CCCCCN1C(=O)C=CC1=O)C(=O)N[C@@H](C)C(=O)Nc1ccc(CSP2(=O)OC[C@H]3O[C@@H](n4cnc5c(N)ncnc54)[C@H](F)[C@@H]3OP(=O)(O)OC[C@H]3O[C@@H](n4cnc5c(O)ncnc54)C[C@@H]3O2)cc1 (some centres unmarked) [CL843] | 16 |  |  |  | 
3 | CCCCCCCC(=O)N[C@H](C(=O)N[C@@H](C)C(=O)Nc1ccc(CSP2(=O)OC[C@H]3O[C@@H](n4cnc5c(N)ncnc54)[C@H](F)[C@@H]3OP(=O)(S)OC[C@H]3O[C@@H](n4cnc5c(O)ncnc54)[C@H](F)[C@@H]3O2)cc1)C(C)C (some centres unmarked) [CL840] |  | 0.13 | 168.9 | 0.08 | 
4 | COC(=O)C1O[C@@H](Oc2ccc(CSP3(=O)OC[C@H]4O[C@@H](n5cnc6c(=O)[nH]cnc65)[C@H](F)[C@@H]4OP(=O)(O)OC[C@H]4O[C@@H](n5cnc6c(N)ncnc65)[C@H](F)[C@@H]4O3)cc2NC(=O)CCCCCN2C(=O)C=CC2=O)C(OC(C)=O)C(OC(C)=O)[C@@H]1OC(C)=O (some centres unmarked) [CL847] | 132 |  |  |  | 
5 | Nc1ncnc2c1ncn2[C@@H]1O[C@@H]2COP(=O)(S)O[C@H]3C[C@H](n4cnc5c(=O)[nH]cnc54)O[C@@H]3COP(=O)(S)O[C@H]2[C@H]1F (some centres unmarked) [CL702, reference compound] |  |  |  |  | induction of type I IFNs in whole-blood assay (comparison in words) [2]: superior induction of type I interferons compared to the reference compound 2′3′-cGAMP
6 | CCCCCCCCCCCCCC(=O)OC(CCCCCCCCCCC)CC(=O)N[C@H](C(=O)N[C@@H](CCCNC(N)=O)C(=O)Nc1ccc(CSP2(=O)OC[C@H]3O[C@@H](n4cnc5c(N)ncnc54)[C@H](F)[C@@H]3OP(=O)(S)OC[C@H]3O[C@@H](n4cnc5c(O)ncnc54)[C@H](F)[C@@H]3O2)cc1)C(C)C (some centres unmarked) [CL861] |  | 0.01 | 36.8 | 0.183 | self-organization in lipid-based nanoparticles / particle size [3]: can self-organize/assemble in lipid-based nanoparticles; also recorded: the size tends to be smaller, around the size of Small Unilamellar Vesicle
7 | CCCCCCCC(=O)N[C@H](C(=O)N[C@@H](C)C(=O)Nc1ccc(CSP2(=O)OC[C@H]3O[C@@H](n4cnc5c(N)ncnc54)[C@H](F)[C@@H]3OP(=O)(O)OC[C@H]3O[C@@H](n4cnc5c(O)ncnc54)C[C@@H]3O2)cc1)C(C)C (some centres unmarked) [CL821] |  | 7.1 | 54.9 | 0.27 | EC50 rank order (lipid chain length) [1]: EC50 (CL821=C8-CL797)<EC50 (CL820=C4-CL797)
8 | CC(C)[C@H](NC(=O)[C@@H](CN)N1C(=O)C=CC1=O)C(=O)N[C@@H](C)C(=O)Nc1ccc(CSP2(=O)OC[C@H]3O[C@@H](n4cnc5c(N)ncnc54)[C@H](F)[C@@H]3OP(=O)(S)OC[C@H]3O[C@@H](n4cnc5c(O)ncnc54)[C@H](F)[C@@H]3O2)cc1 (some centres unmarked) [CL874] | 156 |  |  |  | % activity (vs cGAMP) [1]: 297%; ISG activity ([1]; THP1-Dual cells): retains full 15G activity
9 | CCCCCCCCCCCCCC(=O)OC(CCCCCCCCCCC)CC(=O)N[C@H](C(=O)N[C@@H](C)C(=O)Nc1ccc(CSP2(=O)OC[C@H]3O[C@@H](n4cnc5c(N)ncnc54)[C@H](F)[C@@H]3OP(=O)(O)OC[C@H]3O[C@@H](n4cnc5c(O)ncnc54)C[C@@H]3O2)cc1)C(C)C (some centres unmarked) [CL838] |  | 0.009 | 91 | 0.214 | self-organization in lipid-based nanoparticles / particle size [3]: can self-organize/assemble in lipid-based nanoparticles
10 | CC(C)[C@H](NC(=O)OC(C)(C)C)C(=O)N[C@@H](CCCNC(N)=O)C(=O)Nc1ccc(CSP2(=O)OC[C@H]3O[C@@H](n4cnc5c(=O)[nH]cnc54)C[C@@H]3OP(=O)(SCc3ccc(NC(=O)[C@H](CCCNC(N)=O)NC(=O)[C@@H](NC(=O)OC(C)(C)C)C(C)C)cc3)OC[C@H]3O[C@@H](n4cnc5c(N)ncnc54)[C@H](F)[C@@H]3O2)cc1 (some centres unmarked) [CL793] |  |  |  |  | induction of type I IFNs in whole-blood assay (comparison in words) [2]: superior induction of type I interferons compared to the reference compound 2′3′-cGAMP
11 | CCCCCCCCCCCCCC(=O)OC(CCCCCCCCCCC)CC(=O)N[C@H](C(=O)N[C@@H](CCCNC(N)=O)C(=O)Nc1ccc(CSP2(=O)OC[C@H]3O[C@@H](n4cnc5c(N)ncnc54)[C@H](F)[C@@H]3OP(=O)(O)OC[C@H]3O[C@@H](n4cnc5c(O)ncnc54)[C@H](F)[C@@H]3O2)cc1)C(C)C (some centres unmarked) [CL860] |  | 0.009 | 33 | 0.248 | self-organization in lipid-based nanoparticles / particle size [3]: can self-organize/assemble in lipid-based nanoparticles; also recorded: the size tends to be smaller, around the size of Small Unilamellar Vesicle
12 | CCCCCCCC(=O)N[C@H](C(=O)N[C@@H](C)C(=O)Nc1ccc(CSP2(=O)OC[C@H]3O[C@@H](n4cnc5c(O)ncnc54)[C@H](F)[C@@H]3OP(=O)(SCc3ccc(NC(=O)[C@H](C)NC(=O)[C@@H](NC(=O)CCCCCCC)C(C)C)cc3)OC[C@H]3O[C@@H](n4cnc5c(N)ncnc54)[C@H](F)[C@@H]3O2)cc1)C(C)C (some centres unmarked) [CL842] |  | 1.4 | 184 | 0.086 | self-organization in lipid-based nanoparticles / particle size [3]: can self-organize/assemble in lipid-based nanoparticles
13 | COC(=O)C1O[C@@H](Oc2ccc(CSP3(=O)OC[C@H]4O[C@@H](n5cnc6c(N)ncnc65)[C@H](F)[C@@H]4OP(=O)(O)OC[C@H]4O[C@@H](n5cnc6c(O)ncnc65)C[C@@H]4O3)cc2[N+](=O)[O-])C(OC(C)=O)C(OC(C)=O)[C@@H]1OC(C)=O (some centres unmarked) [CL831] | 6 |  |  |  | 
14 | Nc1ncnc2c1ncn2[C@@H]1O[C@@H]2COP(=O)(S)O[C@H]3C[C@H](n4cnc5c(=O)[nH]cnc54)O[C@@H]3COP(=O)(O)O[C@H]2[C@H]1F (some centres unmarked) [CL797, reference compound] | 181 |  |  |  | EC50 [1]: 8150 nM
15 | Nc1ncnc2c1ncn2[C@@H]1OC2COP(=O)(S)O[C@@H]3C(COP(=O)(O)O[C@H]2[C@H]1F)O[C@@H](n1cnc2c(=O)[nH]cnc21)[C@@H]3F (some centres unmarked) [CL845, reference compound] | 227 |  |  |  | EC50 [1]: 4570 nM
16 | CC(C)[C@H](N)C(=O)N[C@@H](C)C(=O)Nc1ccc(CSP2(=O)OC[C@H]3O[C@@H](n4cnc5c(N)ncnc54)[C@H](F)[C@@H]3OP(=O)(O)OC[C@H]3O[C@@H](n4cnc5c(O)ncnc54)C[C@@H]3O2)cc1 (some centres unmarked) [CL819] |  |  |  |  | EC50 rank order (lipid chain length) [1]: EC50 (CL819=C2-CL797)=EC50 (CL797)
17 | CCCCCCCC(=O)N[C@H](C(=O)N[C@@H](C)C(=O)Nc1ccc(CSP2(=O)OC[C@H]3O[C@@H](n4cnc5c(N)ncnc54)[C@H](F)[C@@H]3OP(=O)(O)OC[C@H]3O[C@@H](n4cnc5c(O)ncnc54)[C@H](F)[C@@H]3O2)cc1)C(C)C (some centres unmarked) [CL841] |  | 3.03 | 264.3 | 0.475 | 
18 | CC(C)[C@H](NC(=O)COCCOCCNC(=O)COCCOCCNC(=O)COCCOCCNC(=O)COCCOCCN)C(=O)N[C@H](C)C(=O)Nc1ccc(CSP2(=O)OC[C@H]3O[C@@H](n4cnc5c(N)ncnc54)[C@H](F)[C@@H]3OP(=O)(O)OC[C@H]3O[C@@H](n4cnc5c(O)ncnc54)C[C@@H]3O2)cc1 (some centres unmarked) [CL822] | 29 |  |  |  | 

From patent US11730817B2, “Pro-cyclic dinucleotides and pro-cyclic dinucleotide conjugates for cytokine induction” (INVIVOGEN, priority 2017, dated 2023)
